In patent US11000033B2, “Ketone or oxime compound, and herbicide” (NISSAN CHEMICAL CORPORATION, priority 2014, dated 2021):

Columns and labels:
Type in all cases: in vivo
beet = assay: Test Example 5: effect on crop by foliage application, plastic box (symbol f); conditions: 320 g/ha, 3 weeks after application
Method in brief: (§1)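 Foliage-application test plants come from spot sowing in sterilized diluvial soil under a soil layer of about 1.5 cm, grown at 25° C. to 30° C. in a greenhouse.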

Digitaria ciliaris = assay: Test Example 4: herbicidal effect by soil treatment (symbol F)
Method in brief: (§2)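 Seeds were sown in sterilized diluvial soil, covered with about 1.5 cm of soil, and the soil surface was sprayed with a water-diluted emulsion of the compound at a predetermined rate. Plants grew in a greenhouse at 25° C. to 30° C.; effects were scored visually 3 weeks after application.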

Galium spurium = assay: Test Example 5: herbicidal effect by foliage application, plastic box (symbol Q); conditions: 320 g/ha, 3 weeks after application
Method in brief: (§3)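 Post-emergence spray; diluvial soil (sterilized), ~1.5 cm seed cover; greenhouse 25–30° C; 14-day-old plants; water-diluted emulsion at predetermined dose; visual score at 3 wk post-treatment.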

Monochoria vaginalis = assay: Test Example 2: herbicidal activity, application during weed generation in submerged conditions (symbol C); conditions: Table 23; application herbicide amount 320 g/ha; grade 0-5 by criteria of Test Example 1
Method in brief: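 Compound was applied as a water-diluted emulsion into the standing water of flooded pots (4 cm) once co-sown weeds reached one to two leaves. Greenhouse temperature was 25° C. to 30° C., soil was alluvial, and each species was rated visually after 3 weeks.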

rapeseed = assay: Test Example 5: effect on crop by foliage application, plastic box (symbol g); conditions: 320 g/ha, 3 weeks after application
Method in brief: as §1

[1] = system: directly sowed rice plant; assay: Test Example 3: effect on crop by foliage application, Wagner pot (symbol b); conditions: application herbicide amount 320 g/ha; for b (directly sowed rice plant) effect on crop grade: Table 24
Method in brief: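 Wagner pot (1/10000 are), alluvial soil, submerged 0.1–0.5 cm; sown E. crus-galli var. crus-galli, L. chinensis, C. difformis, rice; greenhouse 25–30 °C.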

Stellaria media = assay: Test Example 4: herbicidal effect by soil treatment (symbol P)
Method in brief: as §2

soybean [2] = assay: Test Example 5: effect on crop by foliage application, plastic box (symbol d); conditions: 320 g/ha, 3 weeks after application
Method in brief: as §1

[3] = system: Echinochloa crus-galli var. crus-galli; assay: Test Example 4: herbicidal effect by soil treatment (symbol H)
Method in brief: as §2

[4] = system: Echinochloa crus-galli var. crus-galli; assay: Test Example 5: herbicidal effect by foliage application, plastic box (symbol H); conditions: 320 g/ha, 3 weeks after application
Method in brief: as §3

Scirpus juncoides = assay: Test Example 1: herbicidal activity, application before weed generation in submerged conditions (symbol B); conditions: application herbicide amount 320 g/ha
Method in brief: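 Pre-emergence, paddy conditions: emulsifiable formulation diluted in water, dosed onto floodwater (4 cm depth) on sowing day. Alluvial soil; weeds sown mixed; rice transplanted at 2.5-leaf stage. Greenhouse 25–30 °C, 3 wk. Score 0–5 (5 = ≥90% kill, 0 = ≤5%).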

Setaria viridis [5] = assay: Test Example 5: herbicidal effect by foliage application, plastic box (symbol G); conditions: 320 g/ha, 3 weeks after application
Method in brief: as §3

Veronica persica = assay: Test Example 4: herbicidal effect by soil treatment (symbol R)
Method in brief: as §2

soybean [6] = assay: Test Example 4: effect on crop by soil treatment (symbol d); conditions: for d: soybean, effect grade on crop: 320 g/ha
Method in brief: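 Plants are raised in a greenhouse (25° C. to 30° C.) from spot-sown seed, which sits under about 1.5 cm of sterilized diluvial soil in a box shared with weed species.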

Setaria viridis [7] = assay: Test Example 4: herbicidal effect by soil treatment (symbol G); conditions: for G: Setaria viridis, herbicidal effect grade: 320 g/ha; for Herbicidal effect grade, G: Setaria viridis: application herbicide amount 320 g/ha
Method in brief: as §2

[8] = application herbicide amount 320 g/ha

| SMILES | f: beet, effect on crop grade (beet) | Q: Galium spurium, herbicidal effect grade (Galium spurium) | g: rapeseed, effect on crop grade (rapeseed) | b (directly sowed rice plant) effect on crop grade [1] | d: soybean, effect on crop grade (soybean [2]) | H: Echinochloa crus-galli var. crus-galli, herbicidal effect grade [4] | B (Scirpus juncoides) herbicidal effect grade (Scirpus juncoides) | G: Setaria viridis, herbicidal effect grade (Setaria viridis [5]) | f: beet, effect on crop (criteria 0-5) (beet) | F: Digitaria ciliaris, herbicidal effect grade (Digitaria ciliaris; 320 g/ha) | Q: Galium spurium, herbicidal effect (criteria 0-5) (Galium spurium) | g: rapeseed, effect on crop (criteria 0-5) (rapeseed) | effect on crop b (directly sowed rice plant), grade 0-5 [1] | P: Stellaria media, herbicidal effect grade (Stellaria media; 320 g/ha) | d: soybean, effect on crop (criteria 0-5) (soybean [2]) | G: Setaria viridis, herbicidal effect grade (Setaria viridis [7]) | H: Echinochloa crus-galli var. crus-galli, herbicidal effect grade ([3]; 320 g/ha) | H: Echinochloa crus-galli var. crus-galli, herbicidal effect (criteria 0-5) [4] | Herbicidal effect grade, B: Scirpus juncoides (Scirpus juncoides) | G: Setaria viridis, herbicidal effect (criteria 0-5) (Setaria viridis [5]) | also measured |
| --- | --- | --- | --- | --- | --- | --- | --- | --- | --- | --- | --- | --- | --- | --- | --- | --- | --- | --- | --- | --- | --- |
| CCC(CC1CC(O)=C(c2c(C)cc(Br)cc2OC)C1=O)=NOC (mixture of isomers) [13-001] | 0 (Herbicidal ratio of 5% or lower (almost no effect)) | 0 (Herbicidal ratio of 5% or lower (almost no effect)) | 4 (Herbicidal ratio of 70% or higher and lower than 90%) | 5 (Herbicidal ratio of 90% or more (almost completely withered)) | 0 (Herbicidal ratio of 5% or lower (almost no effect)) | 5 (Herbicidal ratio of 90% or more (almost completely withered)) | 2 (Herbicidal ratio of 20% or higher and lower than 40%) | 5 (Herbicidal ratio of 90% or more (almost completely withered)) |  |  |  |  |  |  |  |  |  |  |  |  | F: Digitaria ciliaris, herbicidal effect grade (Digitaria ciliaris; [8]): 5 (Herbicidal ratio of 90% or more (almost completely withered)); Herbicidal effect grade, C: Monochoria vaginalis (Monochoria vaginalis): 0 (Herbicidal ratio of 5% or lower (almost no effect)); P: Stellaria media, herbicidal effect grade (Stellaria media; [8]): 0 (Herbicidal ratio of 5% or lower (almost no effect)); H: Echinochloa crus-galli var. crus-galli, herbicidal effect grade [3, 8]: 5 (Herbicidal ratio of 90% or more (almost completely withered)); R: Veronica persica, herbicidal effect grade (Veronica persica; [8]): 0 (Herbicidal ratio of 5% or lower (almost no effect)); d: soybean, effect on crop grade (soybean [6]; [8]): 0 (Herbicidal ratio of 5% or lower (almost no effect)) |
| COC(=O)c1ccc(CON=C(C)CC2CC(O)=C(c3c(C)cc(C)cc3C)C2=O)cc1 (stereo not drawn) [1-118] |  |  |  |  |  |  |  |  | 0 (Herbicidal ratio of 5% or lower (almost no effect)) | 3 (Herbicidal ratio of 40% or higher and lower than 70%) | 3 (Herbicidal ratio of 40% or higher and lower than 70%) | 4 (Herbicidal ratio of 70% or higher and lower than 90%) | 5 (Herbicidal ratio of 90% or more (almost completely withered)) | 0 (Herbicidal ratio of 5% or lower (almost no effect)) | 0 (Herbicidal ratio of 5% or lower (almost no effect)) | 2 (Herbicidal ratio of 20% or higher and lower than 40%) | 4 (Herbicidal ratio of 70% or higher and lower than 90%) | 2 (Herbicidal ratio of 20% or higher and lower than 40%) | 1 (Herbicidal ratio of 5% or higher and lower than 20%) | 0 (Herbicidal ratio of 5% or lower (almost no effect)) | R: Veronica persica, herbicidal effect grade (Veronica persica; 320 g/ha): 0 (Herbicidal ratio of 5% or lower (almost no effect)); d: soybean, effect grade on crop (soybean [6]): 0 (Herbicidal ratio of 5% or lower (almost no effect)) |
| CC(CC1CC(O)=C(c2c(C)cc(C)cc2C)C1=O)=NOCc1ccccc1[N+](=O)[O-] (stereo not drawn) [1-119] |  |  |  |  |  |  |  |  | 0 (Herbicidal ratio of 5% or lower (almost no effect)) | 4 (Herbicidal ratio of 70% or higher and lower than 90%) | 0 (Herbicidal ratio of 5% or lower (almost no effect)) | 5 (Herbicidal ratio of 90% or more (almost completely withered)) | 5 (Herbicidal ratio of 90% or more (almost completely withered)) | 0 (Herbicidal ratio of 5% or lower (almost no effect)) | 0 (Herbicidal ratio of 5% or lower (almost no effect)) | 4 (Herbicidal ratio of 70% or higher and lower than 90%) | 5 (Herbicidal ratio of 90% or more (almost completely withered)) | 5 (Herbicidal ratio of 90% or more (almost completely withered)) | 0 (Herbicidal ratio of 5% or lower (almost no effect)) | 5 (Herbicidal ratio of 90% or more (almost completely withered)) | R: Veronica persica, herbicidal effect grade (Veronica persica; 320 g/ha): 0 (Herbicidal ratio of 5% or lower (almost no effect)); d: soybean, effect grade on crop (soybean [6]): 0 (Herbicidal ratio of 5% or lower (almost no effect)) |
| CON=C(C)CC1CC(OC(=O)N(C)CCCCCl)=C(c2c(C)cc(C)cc2C)C1=O (stereo not drawn) [1-126] |  |  |  |  |  |  |  |  | 0 (Herbicidal ratio of 5% or lower (almost no effect)) | 0 (Herbicidal ratio of 5% or lower (almost no effect)) | 0 (Herbicidal ratio of 5% or lower (almost no effect)) | 4 (Herbicidal ratio of 70% or higher and lower than 90%) | 5 (Herbicidal ratio of 90% or more (almost completely withered)) | 0 (Herbicidal ratio of 5% or lower (almost no effect)) | 0 (Herbicidal ratio of 5% or lower (almost no effect)) | 0 (Herbicidal ratio of 5% or lower (almost no effect)) | 0 (Herbicidal ratio of 5% or lower (almost no effect)) | 4 (Herbicidal ratio of 70% or higher and lower than 90%) | 0 (Herbicidal ratio of 5% or lower (almost no effect)) | 4 (Herbicidal ratio of 70% or higher and lower than 90%) | R: Veronica persica, herbicidal effect grade (Veronica persica; 320 g/ha): 0 (Herbicidal ratio of 5% or lower (almost no effect)); d: soybean, effect grade on crop (soybean [6]): 0 (Herbicidal ratio of 5% or lower (almost no effect)) |
| CC#Cc1cc(C)c(C2=C(O)CC(CC(=NOCC(F)(F)F)C(C)C)C2=O)c(C)c1 (stereo not drawn) [9-015] | 0 (Herbicidal ratio of 5% or lower (almost no effect)) | 2 (Herbicidal ratio of 20% or higher and lower than 40%) | 5 (Herbicidal ratio of 90% or more (almost completely withered)) | 5 (Herbicidal ratio of 90% or more (almost completely withered)) | 0 (Herbicidal ratio of 5% or lower (almost no effect)) | 5 (Herbicidal ratio of 90% or more (almost completely withered)) | 5 (Herbicidal ratio of 90% or more (almost completely withered)) | 5 (Herbicidal ratio of 90% or more (almost completely withered)) |  |  |  |  |  |  |  |  |  |  |  |  | Herbicidal effect grade, F: Digitaria ciliaris (Digitaria ciliaris; [8]): 5 (Herbicidal ratio of 90% or more (almost completely withered)); Herbicidal effect grade, P: Stellaria media (Stellaria media; [8]): 0 (Herbicidal ratio of 5% or lower (almost no effect)); Herbicidal effect grade, G: Setaria viridis (Setaria viridis [7]): 5 (Herbicidal ratio of 90% or more (almost completely withered)); Herbicidal effect grade, H: Echinochloa crus-galli var. crus-galli [3, 8]: 5 (Herbicidal ratio of 90% or more (almost completely withered)); Herbicidal effect grade, R: Veronica persica (Veronica persica; [8]): 0 (Herbicidal ratio of 5% or lower (almost no effect)); Effect on crop grade, d: soybean (soybean [6]; [8]): 0 (Herbicidal ratio of 5% or lower (almost no effect)) |
| CON=C(CC1CC(O)=C(c2c(C)cc(-n3cc(Cl)cn3)cc2C)C1=O)C1CC1 (stereo not drawn) [9-007] | 0 (Herbicidal ratio of 5% or lower (almost no effect)) | 1 (Herbicidal ratio of 5% or higher and lower than 20%) | 4 (Herbicidal ratio of 70% or higher and lower than 90%) | 5 (Herbicidal ratio of 90% or more (almost completely withered)) | 0 (Herbicidal ratio of 5% or lower (almost no effect)) | 5 (Herbicidal ratio of 90% or more (almost completely withered)) | 4 (Herbicidal ratio of 70% or higher and lower than 90%) | 5 (Herbicidal ratio of 90% or more (almost completely withered)) |  |  |  |  |  |  |  |  |  |  |  |  | Herbicidal effect grade, F: Digitaria ciliaris (Digitaria ciliaris; [8]): 5 (Herbicidal ratio of 90% or more (almost completely withered)); Herbicidal effect grade, P: Stellaria media (Stellaria media; [8]): 0 (Herbicidal ratio of 5% or lower (almost no effect)); Herbicidal effect grade, G: Setaria viridis (Setaria viridis [7]): 5 (Herbicidal ratio of 90% or more (almost completely withered)); Herbicidal effect grade, H: Echinochloa crus-galli var. crus-galli [3, 8]: 3 (Herbicidal ratio of 40% or higher and lower than 70%); Herbicidal effect grade, R: Veronica persica (Veronica persica; [8]): 0 (Herbicidal ratio of 5% or lower (almost no effect)); Effect on crop grade, d: soybean (soybean [6]; [8]): 0 (Herbicidal ratio of 5% or lower (almost no effect)) |
